Measurements from US8519149B2, “Tricyclic compounds as mPGES-1 inhibitors” (Glenmark Pharmaceuticals S.A., priority 2010, dated 2013).
pIC50: −log10 of the molar value.

Target: T1, Recombinant human mPGES-1 (Homo sapiens, UniProt O14684)
T1 sequence (O14684 1-152): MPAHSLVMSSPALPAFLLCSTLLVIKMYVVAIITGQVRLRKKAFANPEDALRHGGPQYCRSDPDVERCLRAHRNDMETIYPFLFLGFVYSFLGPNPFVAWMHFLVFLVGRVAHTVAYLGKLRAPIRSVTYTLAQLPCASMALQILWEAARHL
Experiment: In-vitro mPGES-1 enzyme inhibition assay (PGE2 formation from PGH2, HTRF detection)
Assay type: biochemical
Conditions: for inhibition at 1 µM: 1 μM test compound, read-out: Percentage inhibition at 1 μM; for inhibition at 1 µM / inhibition at 10 µM: recombinant human mPGES-1 microsomal fraction; for inhibition at 10 µM: 10 μM test compound, read-out: Percentage inhibition at 10 μM; for pIC50: class symbols, selected examples
How it was run: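 Crude microsomal fractions containing recombinant human mPGES-1 (40-60 μg/mL protein) convert PGH2 to PGE2 in the presence of reduced glutathione, with 0.5% final DMSO. Reaction stopped with stannous chloride, and PGE2 measured by anti-PGE2 antibody (HTRF) detection. IC50 by nonlinear regression of % inhibition versus uninhibited enzyme control.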

Structure (SMILES)	inhibition at 1 µM [%]	inhibition at 10 µM [%]	pIC50
CC1(C)Cc2c(c(C(=O)Nc3ccc(OCC4CC4)nc3)cc3nc(Nc4c(F)cccc4Cl)[nH]c23)O1 [Example-125, 2-[(2-Chloro-6-fluorophenyl)amino]-N-[6-(cyclopropylmethoxy)pyridin-3-yl]-7,7-dimethyl-7,8-dihydro-1H-furo[3,2-e]benzimidazole-5-carboxamide]	10.6	76.7	
Cn1c(Nc2c(F)cccc2Cl)nc2cc(C(=O)Nc3ccc(C(F)(F)F)nc3)c3c(c21)CC(C)(C)O3 [Example-153, 2-((2-Chloro-6-fluorophenyl)amino)-1,7,7-trimethyl-N-(6-(trifluoromethyl)pyridin-3-yl)-7,8-dihydro-1H-benzofuro[4,5-d]imidazole-5-carboxamide]	100	99.9	> 7.30
CC1(C)Cc2c(c(C(=O)NCC3CCCCC3)cc3nc(Nc4c(Cl)cncc4Cl)[nH]c23)O1 [Example-27, N-(Cyclohexylmethyl)-2-[(3,5-dichloropyridin-4-yl)amino]-7,7-dimethyl-7,8-dihydro-1H-furo[3,2-e]benzimidazole-5-carboxamide]	93.7	93	
CC1(C)Cc2c(c(C(=O)Nc3ccc(Br)cc3)cc3nc(Nc4c(Cl)cncc4Cl)[nH]c23)O1 [Example-8, N-(4-Bromophenyl)-2-[(3,5-dichloropyridin-4-yl)amino]-7,7-dimethyl-7,8-dihydro-1H-furo[3,2-e]benzimidazole-5-carboxamide]	92.6	90.1	> 7.30
CC1(C)Cc2c(c(C(=O)NCCN3CCOCC3)cc3nc(Nc4c(Cl)cccc4Cl)[nH]c23)O1 [Example-70, 2-[(2,6-Dichlorophenyl)amino]-7,7-dimethyl-N-[2-(morpholin-4-yl)ethyl]-7,8-dihydro-1H-furo[3,2-e]benzimidazole-5-carboxamide]	69.1	88.2	
CC1(C)Cc2c(c(C(=O)Nc3cccc(C4CC4)c3)cc3nc(Nc4c(F)cccc4Cl)[nH]c23)O1 [Example-165, 2-((2-Chloro-6-fluorophenyl)amino)-N-(3-cyclopropylphenyl)-7,7-dimethyl-7,8-dihydro-1H-benzofuro[4,5-d]imidazole-5-carboxamide]	99.4	98.1	> 7.30
CC(C)(C)CC(C)(C)NC(=O)c1cc2nc(Nc3c(F)cccc3Cl)[nH]c2c2c1OC(C)(C)C2 [Example-52, 2-[(2-Chloro-6-fluorophenyl)amino]-7,7-dimethyl-N-(2,4,4-trimethylpentan-2-yl)-7,8-dihydro-1H-furo[3,2-e]benzimidazole-5-carboxamide]	94.3	96	> 7.30
CC1(C)Cc2c(c(C(=O)NCC3CCCCC3)cc3nc(Nc4c(F)cccc4Cl)[nH]c23)O1 [Example-42, 2-[(2-Chloro-6-fluorophenyl)amino]-N-(cyclohexylmethyl)-7,7-dimethyl-7,8-dihydro-1H-furo[3,2-e]benzimidazole-5-carboxamide]	83.2	89.9	> 7.30
CC1(C)Cc2c(c(C(=O)Nc3ccc(Br)cc3)cc3nc(Nc4ccccc4Cl)[nH]c23)O1 [Example-78, N-(4-Bromophenyl)-2-[(2-chlorophenyl)amino]-7,7-dimethyl-7,8-dihydro-1H-furo[3,2-e]benzimidazole-5-carboxamide]	88.5	96.4	> 7.30
Cc1cccc(Cl)c1Nc1nc2cc(C(=O)Nc3c(F)cc(F)cc3F)c3c(c2[nH]1)CC(C)(C)O3 [Example-109, 2-[(2-Chloro-6-methylphenyl)amino]-7,7-dimethyl-N-(2,4,6-trifluorophenyl)-7,8-dihydro-1H-furo[3,2-e]benzimidazole-5-carboxamide]	93.8	98.8	7.00 to 7.30
COCCn1c(Nc2c(Cl)cccc2Cl)nc2cc(C(=O)Nc3ccc(C(F)(F)F)cc3)c3c(c21)CC(C)(C)O3 [Example-99, 2-[(2,6-Dichlorophenyl)amino]-1-(2-methoxyethyl)-7,7-dimethyl-N-[4-(trifluoromethyl)phenyl]-7,8-dihydro-1H-furo[3,2-e]benzimidazole-5-carboxamide]	95.3	99.7	> 7.30

Continued, values first:

inhibition at 1 µM [%]	inhibition at 10 µM [%]	pIC50	Structure (SMILES)
43.9	60.2		CC1(C)Cc2c(c(C(=O)Nc3ccc(C(F)(F)F)cc3)cc3nc(Nc4ccc(Cl)cc4Cl)[nH]c23)O1 [Example-91, 2-[(2,4-Dichlorophenyl)amino]-7,7-dimethyl-N-[4-(trifluoromethyl)phenyl]-7,8-dihydro-1H-furo[3,2-e]benzimidazole-5-carboxamide]
96.4	99.8	> 7.30	CC1(C)Cc2c(c(C(=O)Nc3cc(C(F)(F)F)ccc3F)cc3nc(Nc4c(F)cccc4Cl)[nH]c23)O1 [Example-111, 2-[(2-Chloro-6-fluorophenyl)amino]-N-[2-fluoro-5-(trifluoromethyl)phenyl]-7,7-dimethyl-7,8-dihydro-1H-furo[3,2-e]benzimidazole-5-carboxamide]
96.9	99.4	> 7.30	CC1(C)Cc2c(c(C(=O)Nc3ccccc3F)cc3nc(Nc4c(F)cccc4Cl)[nH]c23)O1 [Example-51, 2-[(2-Chloro-6-fluorophenyl)amino]-N-(2-fluorophenyl)-7,7-dimethyl-7,8-dihydro-1H-furo[3,2-e]benzimidazole-5-carboxamide]
98.1	99.4	7.00 to 7.30	Cc1nc2c(o1)c(C(=O)NCc1ccccc1C(F)(F)F)cc1nc(Nc3c(Cl)cccc3Cl)[nH]c12 [Example-188, 7-[(2,6-Dichlorophenyl)amino]-2-methyl-N-[2-(trifluoromethyl)benzyl]-8H-imidazo[4,5-e][1,3]benzoxazole-4-carboxamide]
75.4	76		Cc1ccc(Nc2nc3cc(C(=O)NCc4ccc(C(F)(F)F)cc4)c4c(c3[nH]2)CC(C)(C)O4)c(Cl)c1 [Example-92, 2-[(2-Chloro-4-methylphenyl)amino]-7,7-dimethyl-N-[4-(trifluoromethyl)benzyl]-7,8-dihydro-1H-furo[3,2-e]benzimidazole-5-carboxamide]
94.4	98.5	> 7.30	O=C(Nc1cc(C(F)(F)F)ccc1F)c1cc2nc(Nc3c(F)cccc3Cl)[nH]c2c2nc(C3CC3)oc12 [Example-185, 7-((2-Chloro-6-fluorophenyl)amino)-2-cyclopropyl-N-(2-fluoro-5-(trifluoromethyl)phenyl)-8H-imidazo[4′,5′:5,6]benzo[1,2-d]oxazole-4-carboxamide]
96.6	95.6	> 7.30	COCCn1c(Nc2c(Cl)cccc2Cl)nc2cc(C(=O)Nc3ccccc3C(F)(F)F)c3c(c21)CC(C)(C)O3 [Example-100, 2-[(2,6-Dichlorophenyl)amino]-1-(2-methoxyethyl)-7,7-dimethyl-N-[2-(trifluoromethyl)phenyl]-7,8-dihydro-1H-furo[3,2-e]benzimidazole-5-carboxamide]
86.2	98	> 7.30	COCCCNC(=O)c1cc2nc(Nc3c(Cl)cccc3Cl)[nH]c2c2c1OC(C)(C)C2 [Example-69, 2-[(2,6-Dichlorophenyl)amino]-N-(3-methoxypropyl)-7,7-dimethyl-7,8-dihydro-1H-furo[3,2-e]benzimidazole-5-carboxamide]
91.4	98.2	> 7.30	Cc1nc2c(o1)c(C(=O)Nc1ccc(C(F)(F)F)cc1)cc1nc(Nc3c(Cl)cccc3Cl)[nH]c12 [Example-178, 7-[(2,6-Dichlorophenyl)amino]-2-methyl-N-[4-(trifluoromethyl)phenyl]-8H-imidazo[4,5-e][1,3]benzoxazole-4-carboxamide]
53.9	91.1		Cc1nc2c(o1)c(C(=O)NC1CCC(F)(F)CC1)cc1nc(Nc3c(Cl)cccc3Cl)[nH]c12 [Example-189, 7-[(2,6-Dichlorophenyl)amino]-N-(4,4-difluorocyclohexyl)-2-methyl-8H-imidazo[4,5-e][1,3]benzoxazole-4-carboxamide]
85.8	98.8		Cc1cc2c(o1)c(C(=O)NCc1ccc(F)cc1)cc1nc(Nc3c(Cl)cncc3Cl)[nH]c12 [Example-22, 2-[(3,5-Dichloropyridin-4-yl)amino]-N-(4-fluorobenzyl)-7-methyl-1H-furo[3,2-e]benzimidazole-5-carboxamide]
91.1	98.9	> 7.30	Cc1ccc(Cl)c(Nc2nc3cc(C(=O)Nc4cccc(C(F)(F)F)c4)c4c(c3[nH]2)CC(C)(C)O4)c1 [Example-123, 2-[(2-Chloro-5-methylphenyl)amino]-7,7-dimethyl-N-[3-(trifluoromethyl)phenyl]-7,8-dihydro-1H-furo[3,2-e]benzimidazole-5-carboxamide]
96.9	99.8	> 7.30	CC1(C)Cc2c(c(C(=O)NC3(c4ccc(C(F)(F)F)cc4)CC3)cc3nc(Nc4c(F)cccc4Cl)[nH]c23)O1 [Example-116, 2-[(2-Chloro-6-fluorophenyl)amino]-7,7-dimethyl-N-{1-[4-(trifluoromethyl)phenyl]cyclopropyl}-7,8-dihydro-1H-furo[3,2-e]benzimidazole-5-carboxamide]
